Experimental data from patent publication US8263642B2, “Antimicrobial compounds and methods of use thereof” (Vanderbilt University, priority 2008, dated 2012).

Tests used:
[1] = system: HssRS-dependent hrtAB expression; test: Luminescence-based assay to monitor HssRS-dependent hrtAB expression (phrtABlux reporter), Newman; type: cell-based, Staphylococcus aureus; settings: Newman; for activation at 0.0825 µM: Staphylococcus aureus, NEWMAN, read-out: % Lumi, luminescence induced by the compound compared to the heme control (82.5 nM) in the same plate; for Luminescence: raw luminescence value obtained in a luminometer
Method: (§1) With reference to Table 1, “Luminescence” refers to the raw luminescence value obtained in a luminomter. “Control (82.5 nm)” refers to the luminescence value obtained from heme at 82.5 nM as a positive control in the same plate as the experimental. “% lum” is the percentage of luminescence induced by the compound as compared to the heme control in the same plate. […] All of these assays are described in the application. […] “N/T” indicates the test was not performed.
A hrtAB-driven expression system was created in the pXen vector system (Xenogen) (Francis, K. P., D. Joh, C. Bellinger-Kawahara, M. J. Hawkinson, T. F. Purchio, and P. R. Contag. 2000. Monitoring bioluminescent Staphylococcus aureus infections in living mice using a novel luxABCDE construct. Infect Immun 68:3594-3600). This vector contains a promoterless luxCDABE operon from Photorabdus luminescens which produces blue green light when expressed. The luxCDABE encodes for a fatty acid reductase (LuxCDE) that produces a long chain fatty aldehyde which, when combined with cellular flavin mononucleotide, is oxidized by a luciferase (LuxAB) to produce light. Therefore, this system is useful in that it bypasses the need for substrate addition and is capable of generating light in the absence of any added reagents. Furthermore, the luminescent signal produced by the combined activities of LuxAB and LuxCDE is of sufficient intensity to be visualized in unmanipulated intact bacteria.
To establish an assay that measures HssRS-dependent expression of luxCDABE, the promoter for hrtAB upstream of luxCDABE was cloned and transformed this vector (phrtABlux) into wildtype and ΔhssR S. aureus. A promoterless vector (plux) and a plasmid containing luxCDABE under the control of a constitutive promoter (psrtAlux) (Mazmanian, S. K., G. Liu, H. Ton-That, and O. Schneewind. 1999. “Staphylococcus aureus sortase, an enzyme that anchors surface proteins to the cell wall.” Science 285:760-763) were included as negative and positive controls, respectively. Initially, wildtype S. aureus harboring either plux, phrtABlux, or psrtAlux were plated on solid medium that either lacked heme or contained 4 μM heme. Only wildtype S. aureus containing psrtAlux produced light on solid media regardless of the presence or absence of heme. […] Light was not produced by bacteria containing plux in either condition.
To adapt this system for a HTS to measure ligand recognition by HssRS, luminescence of wildtype and ΔhssR harboring the above listed plasmids in liquid media with or without heme was measured. […] Taken together, these experiments establish a whole cell […] assay that can identify small molecule modifiers of HssRS. This screen, in some aspects, can identify molecules that can be used as molecular probes in structure-function analyses to determine the mechanism by which S. aureus sense host heme.
Upon staphylococcal exposure to heme, HssRS senses heme and activates expression of hrtAB. This process can be measured using a reporter assay that employs a vector encoding the light-producing luxCDABE operon under the control of the hrtAB promoter. This assay results in whole cell luminescence upon HssRS-dependent activation of hrtAB, forming the foundation for the development of an assay suitable for high-throughput screens for small molecule activators of HssRS.
To develop an automated HTS format, S. aureus wildtype and ΔhssR harboring reporter constructs (psrtAlux, phrtAlux, plux) can be grown for 15 hours at 37° C. in tryptic soy broth (TSB) containing 10 μg/ml chloramphenicol. The addition of chloramphenicol is useful to ensure that the staphylococci propagate the reporter plasmid upon cell division. Following growth, bacterial cultures can be normalized and 2×10^7 cells (approximately 2 μl) can be added to individual wells of black walled, clear bottomed, 96-well plates. […]

[2] = system: hrtAB-driven expression of the xylE reporter gene; test: XylE reporter assay (hrtAB promoter-xylE), Newman; type: cell-based, Staphylococcus aureus; settings: for XylE (0.05): level of XylE induction at 0.05 uM of the compound; for XylE (0.5): level of XylE induction at 0.5 uM of the compound; for XylE (5.0): level of XylE induction at 5.0 uM of the compound; for XylE (50.0): level of XylE induction at 50.0 uM of the compound
Method: as §1
Compounds that activate HssRS-driven hrtAB expression in the luciferase-based screen can be subjected to two separate counter screens to confirm these compounds as active hits. First, compounds of interest can be tested for their ability to activate expression of hrtAB in the XylE expression assay described hereinbelow. This is an in vitro assay that measures hrtAB-driven expression of the xylE reporter gene. The XylE-based reporter assay utilizes slightly more manipulations than the primary luciferase-based screen. […] It should be appreciated that a shortcoming of this counter screen is that it measures reporter gene expression, which is a similar activity as that measured in the primary assay. To address this shortcoming, compounds that are positive in both XylE- and luciferase-based assays can be subjected to a second counter screen as described hereinbelow.
S. aureus strains harboring the appropriate reporter construct were inoculated into 500 μl of TSB containing 10 μg/ml chloramphenicol in 1.5 ml tubes. Cultures were grown O/N at 37° C. with shaking. Bacteria were pelleted by centrifugation and spent medium was aspirated. The pellet was washed once with 500 μl of 20 mM potassium phosphate, pH 7.6, and resuspended in 150 μl of 100 mM potassium phosphate buffer, pH 8.0, 10% (v/v) acetone, 25 μg/ml lysostaphin. After 20 minute incubation at 37° C. and 5 minute incubation on ice, samples were centrifuged at 20,000 g for 30 minutes at 4° C. 1-10 μl of supernatant was added to a 96-well plate and 200 μl of 100 mM potassium phosphate, pH 8.0, 0.2 mM pyrocatechol was added to each well. Formation of 2-hydroxymuconic semialdehyde was tracked by measuring the absorbance at 375 nm every minute for 30 minutes on a Varian MP 50 microplate reader. Protein concentration in samples was determined by BCA (Pierce). One unit of specific activity of XylE in a sample is defined as the formation of 1 nmol of 2-hydroxymuconic semialdehyde per minute per milligram of cellular protein at 30° C. (Chien, Y., Manna, A. C., Projan, S. J., and Cheung, A. L. 1999, “SarA, a global regulator of virulence determinants in Staphylococcus aureus, binds to a conserved motif essential for sar-dependent gene regulation. J. Biol. Chem. 274, 37169-37176).
The hrtAB intergenic region was fused to the xylE structural gene by PCR-SOE. In the first reaction, primer P1B:[…] and P2B:[…] were used to amplify the hrtAB intergenic region from S. aureus strain Newman genomic DNA. In the second PCR reaction primers P3B:[…] and P4B:[…] were used to amplify the xylE structural gene using pALC1639 template DNA (provided by Dr. Ambrose Cheung) and PCR product purified using a Qiagen gel extraction kit. For the PCRSOE reaction, a 1:300 dilution of purified reaction 1 and reaction 2 PCR products was mixed and amplified by PCR using […]. This yielded a construct in which the hrtAB intergenic region is fused to the xylE gene in such a manner that the position of the start codon for xylE corresponds to the position of the start codon for […] in the hrtAB locus. The hrtAB promoter-xylE fusion DNA was then subcloned into pOS1. As a control we also constructed a promoterless xylE vector. The xylE gene was amplified from pACL1639 template DNA using the primers P1C:[…] and P2C:[…] and then cloned into the pOS1 vector.

C=CCc1ccccc1Oc1ccc(C(F)(F)F)cn1
activation at 0.0825 µM [1]: 27.5%
Luminescence [1]: 1474
XylE (0.05) [2]: 0.08
XylE (0.5) [2]: 0.02
XylE (5.0) [2]: 0.07
XylE (50.0) [2]: 0.09

O=[N+]([O-])c1ccc(O)c(/C=N/c2ccccc2-c2nc3ccccc3s2)c1
activation at 0.0825 µM [1]: 630%
Luminescence [1]: 2904
XylE (0.05) [2]: 1
XylE (0.5) [2]: 50
XylE (5.0) [2]: 1
XylE (50.0) [2]: 1

CCN(CC)S(=O)(=O)c1cc(C(=O)NC2CCCCCC2)ccc1Cl
activation at 0.0825 µM [1]: 759%
Luminescence [1]: 2080
XylE (0.05) [2]: 1
XylE (0.5) [2]: 1
XylE (5.0) [2]: 1
XylE (50.0) [2]: 0.05

CCOC(=O)c1c(C)[nH]c2c1-c1cc(Br)ccc1C(=O)C2=O
activation at 0.0825 µM [1]: 240%
Luminescence [1]: 2896
XylE (0.05) [2]: 1
XylE (0.5) [2]: 1
XylE (5.0) [2]: 0.09
XylE (50.0) [2]: 0.3

COc1cccc(-c2cc(C(=O)Nc3ccccc3C(F)(F)F)c3ccccc3n2)c1
activation at 0.0825 µM [1]: 450%
Luminescence [1]: 1642
XylE (0.5) [2]: 0
XylE (5.0) [2]: 0.05
XylE (50.0) [2]: 0.09

O=C(Nc1ccc(C(F)(F)F)cc1)c1cc(S(=O)(=O)NCc2ccc(F)cc2)ccc1F
activation at 0.0825 µM [1]: 493%
Luminescence [1]: 1710
XylE (0.5) [2]: 0
XylE (5.0) [2]: 0.03
XylE (50.0) [2]: 0.03

O=c1oc2ccccc2c(O)c1C(c1ccc([N+](=O)[O-])o1)c1c(O)c2ccccc2oc1=O
activation at 0.0825 µM [1]: 559%
Luminescence [1]: 1939
XylE (0.5) [2]: 0.02
XylE (5.0) [2]: 0.07
XylE (50.0) [2]: 0

COc1ccc(/C=C/c2nc3ccccc3c(=O)n2-c2cccc(C(=O)O)c2)cc1
activation at 0.0825 µM [1]: 705%
Luminescence [1]: 1995
XylE (0.5) [2]: 0.04
XylE (5.0) [2]: 0.08
XylE (50.0) [2]: 0.05

COc1cc(OC)cc(C(=O)Nc2ccc(-c3nc4cc(C)ccc4o3)cc2)c1
activation at 0.0825 µM [1]: 345%
Luminescence [1]: 1765
XylE (0.5) [2]: 0.1
XylE (5.0) [2]: 0.6
XylE (50.0) [2]: 0

COc1cc(/C=C/c2ccc3cccc(O)c3n2)c(Cl)cc1O
activation at 0.0825 µM [1]: 533%
Luminescence [1]: 1722
XylE (0.5) [2]: 1
XylE (5.0) [2]: 0.5
XylE (50.0) [2]: 0

Oc1ccccc1-c1nc(NC2CCCC2)c2ccccc2n1
activation at 0.0825 µM [1]: 591%
Luminescence [1]: 1637
XylE (0.5) [2]: 0.09
XylE (5.0) [2]: 0.02
XylE (50.0) [2]: 0

O=C(Nc1ccncc1)c1ccc(COc2cc(Cl)ccc2Cl)cc1
activation at 0.0825 µM [1]: 597%
Luminescence [1]: 1845
XylE (0.5) [2]: 1
XylE (5.0) [2]: 0.4
XylE (50.0) [2]: 1

O=C(NC(=S)Nc1ccc(Oc2ccccc2)cc1)c1cccs1
activation at 0.0825 µM [1]: 415%
Luminescence [1]: 1774
XylE (0.5) [2]: 0.01
XylE (5.0) [2]: 0.09
XylE (50.0) [2]: 0.01

O=C(Nc1ccncc1)c1ccc(COc2ccccc2Cl)cc1
activation at 0.0825 µM [1]: 478%
Luminescence [1]: 1589
XylE (0.5) [2]: 0.09
XylE (5.0) [2]: 0
XylE (50.0) [2]: 1

COC(=O)CCNc1nc(-c2ccc(Br)cc2)nc2ccccc12
activation at 0.0825 µM [1]: 484%
Luminescence [1]: 1714
XylE (0.5) [2]: 0.03
XylE (5.0) [2]: 0.02
XylE (50.0) [2]: 0.8

c1cc(-c2ccc3nsnc3c2)c2cc3nsnc3cc2c1
activation at 0.0825 µM [1]: 347%
Luminescence [1]: 1630
XylE (0.5) [2]: 0.06
XylE (5.0) [2]: 0
XylE (50.0) [2]: 0.9

Cc1cccc(C(=O)N2N=C(c3cccc(Br)c3)CC2(C)C(F)(F)F)c1 (centres unmarked)
activation at 0.0825 µM [1]: 572%
Luminescence [1]: 1683
XylE (0.5) [2]: 0.04
XylE (5.0) [2]: 0.08
XylE (50.0) [2]: 0.1

Cc1cc(C)c(S(=O)(=O)Nc2ccc(O)c(-c3c(O)ccc4ccccc34)c2)cc1C
activation at 0.0825 µM [1]: 354%
Luminescence [1]: 1574
XylE (0.5) [2]: 0.03
XylE (5.0) [2]: 0.06
XylE (50.0) [2]: 0.05

O=C(Nc1ccccc1O)c1cccc(N2C(=O)c3ccc([N+](=O)[O-])cc3C2=O)c1
activation at 0.0825 µM [1]: 675%
Luminescence [1]: 1850
XylE (0.5) [2]: 0.02
XylE (5.0) [2]: 0
XylE (50.0) [2]: 0.03

O=C(COc1nsnc1N1CCOCC1)Nc1ccccc1
activation at 0.0825 µM [1]: 207%
Luminescence [1]: 1594
XylE (0.5) [2]: 0.05
XylE (5.0) [2]: 0.02
XylE (50.0) [2]: 0.03

COC(=O)C1=C(C)NC(=O)NC1c1cn(-c2ccccc2)nc1-c1ccc(OC)c(OC)c1 (centres unmarked)
activation at 0.0825 µM [1]: 866%
Luminescence [1]: 1854
XylE (0.5) [2]: 0.04
XylE (5.0) [2]: 0.03
XylE (50.0) [2]: 0.05

Cc1ccc(CNC(=O)c2ccc(CSCc3ccccc3Cl)o2)cc1
activation at 0.0825 µM [1]: 192%
Luminescence [1]: 1603
XylE (0.5) [2]: 0.08
XylE (5.0) [2]: 0.7
XylE (50.0) [2]: 0.8

Cc1ccc(Nc2nc(-c3ccccc3O)nc3ccccc23)cc1
activation at 0.0825 µM [1]: 360%
Luminescence [1]: 1922
XylE (0.5) [2]: 0.04
XylE (5.0) [2]: 0.1
XylE (50.0) [2]: 0.08
